Results as given in patent US11771772B2, “Glycemic control using intrinsic factor bound to a vitamin B12 conjugate of a glucagon-like peptide-1 receptor agonist” (Syracuse University, priority 2015, dated 2023).
Where two headings read alike, the source gives them in different places.

How the values were obtained:
Intrinsic factor [1] = biological target: T1, Intrinsic factor (Homo sapiens, UniProt P27352); experiment: IF binding, chase experiment with 57Co radiolabeled B12; conditions: read-out: binding affinity to IF
T1 construct: purchased Xeragenx LLC XGX-003; host or cells: Arabidopsis (transgenic plant)
From the text: Peptides were purchased through CSBio (Menlo Park, Calif.) and all materials were purchased through Sigma-Aldrich unless stated otherwise. Apo-IF was supplied by Xeragenx LLC (cat no: XGX-003). […] IF used in these assays was produced in the plant Arabidopsis in the apo-form and of high purity

Intrinsic factor [2] = biological target: T1, Intrinsic factor; conditions: general statement in description; read-out: IF binding affinity (Kd); cited from earlier work

T1 sequence (P27352 19-417): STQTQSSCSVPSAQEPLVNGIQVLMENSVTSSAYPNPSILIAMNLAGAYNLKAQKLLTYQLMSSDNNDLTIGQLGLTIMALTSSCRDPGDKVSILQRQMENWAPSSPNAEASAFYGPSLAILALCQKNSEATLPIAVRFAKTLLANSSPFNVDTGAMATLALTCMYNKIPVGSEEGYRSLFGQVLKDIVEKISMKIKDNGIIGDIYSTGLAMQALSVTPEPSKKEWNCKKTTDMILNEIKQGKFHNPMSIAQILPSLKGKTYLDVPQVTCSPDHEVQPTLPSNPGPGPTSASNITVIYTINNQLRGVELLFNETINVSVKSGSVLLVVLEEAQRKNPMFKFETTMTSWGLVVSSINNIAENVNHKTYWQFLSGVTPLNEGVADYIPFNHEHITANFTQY

- Kd (Intrinsic factor [1]): 0.12 nM
Substance: cyanocobalamin [Compound B12]
- Kd (Intrinsic factor [2]): ~0.001 nM
